# From patent US20250082781A1, “METHODS OF LOWERING BLOOD GLUCOSE AND TREATING TYPE 2 DIABETES BY ACTIVATION OF PDE4D3” (Salk Institute for Biological Studies, priority 2021, published 2025)
# Key:
# [1] = test system: HSL phosphorylation at S660; assay: Western blot of pHSL-S660 in 3T3-L1 adipocytes; format: cell-based; settings: basal and ISO-stimulated, FGF1 100 ng/ml
# Protocol: (§1) Tissues were lysed in cold lysis buffer (50 mM Tris, pH 7.5, 150 mM NaCl, 1% NP40, 0.5% NaDoc, 0.1% SDS, 5% glycerol, 1 mM EDTA, protease and phosphatase inhibitors (complete and PhosSTOP (Roche)) by homogenization by bead-beater for 30 s. Samples were cleared for 10 min at 18,000 g at 4° C. and the middle clear phase was transferred to new tubes. A second 30 min centrifugation was performed and the middle clear phase was transferred to new tubes. Five ul protein extract was used for BCA assay to determine protein concentration. Samples were boiled in Laemmli buffer. SDS-PAGE and blotting were performed using gradient gels and Trans-Blot Turbo Transfer System (Bio-Rad). Antibodies used were PDE4D (12918-1-AP, Proteintech), pHSL-660 (4126S, Cell signaling), HSL (4107S, Cell Signaling), tubulin (CP06, Millipore Sigma), and GFP (A01388, GenScript). PDE4D3-pS44 phospho-specific antibody was generated using PDE4D3-S44 FRRHpSWISFDVDNGTSAGR peptide (SEQ ID NO: 20) (Mackenzie et al., 2002) by Pocono Rabbit Farm, using 70-day rabbit antibody production protocol and purified via affinity purification. Primary antibodies were incubated for 2 h at room temperature (RT) or overnight (ON) at 4° C. Blots were developed using SuperSignal West Pico PLUS Chemiluminescent Substrate (ThermoFisher Scientific) and imaged with BioRad GelDoc system.
# [2] = test system: endogenous glucose production; assay: Hyperinsulinemic clamp in ob/ob mice; format: in vivo, mouse; settings: FGF1 0.5 mg/kg every other day for a week
# Protocol: Before the test, mice were equipped with a permanent catheter in the right atrium via the jugular vein and were allowed to recover over a period of at least 3 days. After the recovery period, the mice were placed in experimental cages. All infusion experiments were performed in conscious, unrestrained mice as described previously (van Dijk et al., 2003). During the experiment, blood glucose levels were determined every 15 minutes using a Lifescan EuroFlash glucose meter. For GC-MS analysis of [U-^13C] glucose, bloodspots on filter paper were collected from the tail vein every 30 minutes.
# Ob/ob mice were treated for 1 week with rFGF1 (0.5 mg kg^−1 every other day for one week). Steady state glucose fluxes were determined for basal and hyperinsulinemic-euglycemic clamp conditions. During the first period, mice were infused with a solution containing a tracer of [U-13C] glucose (2.5 mg/ml Cambridge Isotope Laboratories, Andover, MA) at an infusion rate of 0.54 ml/h. With respect to the final period, blood glucose levels were clamped at 20 mM. For this, the mice were infused at a constant rate of 0.135 ml/h with a mixture of insulin (44 mU/ml, Actrapid, Novo Nordisk, Bagsvaerd, Denmark), somatostatin (20 μg/ml, UCB Breda, the Netherlands), 1% BSA, and glucose (200 mg/ml from which 3% [U-^13C] glucose). Additionally, a second (variable) infusion was used containing glucose (200 mg/ml from which 3% [U-^13C] glucose) to adjust blood glucose levels.
# PDE4D = assay: Western blot of PDE4D phosphorylation in 3T3-L1 adipocytes; format: cell-based
# Protocol: as §1
substance,measurement,setting,value
"FGF1: Recombinant fibroblast growth factor 1 protein, dissolved in PBS, injected subcutaneously",HSL phosphorylation at S660 (pHSL),[1],suppressed HSL phosphorylation at S660
same,reduction in basal endogenous glucose production (EGP),[2],~25%
same,exogenous glucose infusion rate (GIR),[2]; clamp conditions,higher
same,glucose disposal rate (GDR),[2]; clamp conditions,not altered
same,FGF1-induced phosphorylation of PDE4D3 in the S44A mutant,PDE4D; 3T3-L1 adipocytes infected with adAAV PDE4D3 S44A,lost
same,S44 phosphorylation of PDE4D3,"PDE4D; 3T3-L1 cells overexpressing PDE4D3, absence and presence of isoproterenol",increased S44 phosphorylation
same,PDE4D phosphorylation,"PDE4D; isoproterenol-stimulated, FGF1 co-treatment 100 ng/ml",increased both the extent and duration of PDE4D phosphorylation
